The text below walks through data of the supplement of paper PMC12613149.

A short description of data set [1]: reversed-phase LC retention time (C18, 15 min MeOH gradient); higher = more hydrophobic / later elution.
The nature of data set [2]: collision cross section (TIMS, N2 drift gas) of the primary ion; higher = larger gas-phase ion size.
The mark [3] stands for this setting: ionization mode: ESI+, ion species: [M+H]+.
Where [4] appears, read: ionization mode: ESI-, ion species: [M-H]-.
Where [5] appears, read: ionization mode: ESI+, ion species: [M]+.

As to `CON(C)C(=O)Nc1ccc(Cl)c(Cl)c1` [Linuron], the “reversed-phase LC retention time” value in data set [1] (setting [3]) worked out at 13.7 min; in data set [1] (setting [4]), 14 min. Moreover, the collision cross section in data set [2] (setting [3]) is reported as 152.6 Å²; in data set [2] (setting [4]), 149.38 Å².
With `NC(N)=NC(=O)c1nc(Cl)c(N)nc1N` [Amiloride], the “reversed-phase LC retention time” value in data set [1] (setting [3]) turned out to be 6.27 min. This compound returned a collision cross section in data set [2] (setting [3]) of 149.53 Å².
Regarding `CCOC(=O)c1ccc(O)cc1` [Ethylparaben], the “reversed-phase LC retention time” value in data set [1] (setting [4]) was 11.3 min. Also, in data set [2] (setting [4]), the collision cross section turned out to be 133.39 Å².
Take `C[N+](C)(C)CC1CO1` (centres undefined) [2,3-Epoxypropyltrimethylammonium]: the “reversed-phase LC retention time” value in data set [1] (setting [5]) amounted to 0.95 min. In data set [2] (setting [5]), this compound returned a collision cross section of 117.85 Å².
Consider `C[C@H](CCC(=O)O)[C@H]1CC[C@H]2[C@@H]3[C@H](O)C[C@@H]4C[C@H](O)CC[C@]4(C)[C@H]3C[C@H](O)[C@]12C` [Cholic acid], for which the “reversed-phase LC retention time” value in data set [1] (setting [4]) is 14.7 min. The collision cross section in data set [2] (setting [4]) is 203.99 Å².
For `O=C(O)C(F)(F)C(F)(F)C(F)(F)C(F)(F)C(F)(F)F` [Perfluorohexanoic acid] the same measures were 12.6 min and 138.14 Å².
Taken in the same sequence, the figures for `O=C1NS(=O)(=O)c2ccccc21` [Saccharin] were 4.8 min and 128.86 Å².
In the case of `Cc1cccc(C)c1N(Cn1cccn1)C(=O)C(=O)O` [Metazachlor OA], the “reversed-phase LC retention time” value in data set [1] (setting [4]) is 8.92 min. In data set [2] (setting [4]), this compound had a collision cross section of 162.14 Å².
`Cn1c(=O)c2c(ncn2C)n(C)c1=O` [Caffeine]: the “reversed-phase LC retention time” value in data set [1] (setting [3]) came to 7.7 min. Also, the collision cross section in data set [2] (setting [3]) is 139.07 Å².
Taken in the same sequence, the figures for `C#C[C@]1(O)CC[C@H]2[C@@H]3CCC4=CC(=O)CC[C@@H]4[C@H]3CC[C@@]21C` [Norethindrone] were 13.9 min and 177.62 Å².
As for `Nc1nc2ccccc2[nH]1` [2-Aminobenzimidazole], in data set [1] (setting [3]), the “reversed-phase LC retention time” value is 5.92 min. The compound also gave a collision cross section in data set [2] (setting [3]) of 124.95 Å².
Taken in the same sequence, the figures for `COP(=O)(OC)OC` [Trimethylphosphate] were 6.15 min and 116.51 Å².
On to `NC12CC3CC(CC(C3)C1)C2` [Amantadine], for which the “reversed-phase LC retention time” value in data set [1] (setting [3]) amounted to 8.82 min. In data set [2] (setting [3]), this compound displayed a collision cross section of 138.51 Å².
In the case of `Cc1cnc2c(C(=O)O)c(Cl)ccc2c1` [Quinmerac], the “reversed-phase LC retention time” value in data set [1] (setting [3]) was found to be 9.27 min. Moreover, in data set [2] (setting [3]), the collision cross section came to 139.87 Å².
In the case of `O=P(O)(O)C(F)(F)C(F)(F)C(F)(F)C(F)(F)C(F)(F)C(F)(F)F` [Perfluorohexyl phosphonic acid], in data set [1] (setting [4]), the “reversed-phase LC retention time” value was found to be 10.5 min. The compound also showed a collision cross section in data set [2] (setting [4]) of 152.3 Å².
With `Cc1cccc(C)c1N(Cn1cccn1)C(=O)CCl` [Metazachlor], in data set [1] (setting [3]), the “reversed-phase LC retention time” value came to 12.9 min. This compound also had a collision cross section in data set [2] (setting [3]) of 159.2 Å².
With `Cc1cccc(Nc2ccccc2C(=O)O)c1C` [Mefenamic acid], the figures for the “reversed-phase LC retention time” value in data set [1] (setting [3]) and in data set [1] (setting [4]) were 16.3 min and 13.6 min, respectively. For the same compound, the figures for the collision cross section in data set [2] (setting [3]) and in data set [2] (setting [4]) were 154.45 Å² and 159.71 Å², respectively.
Regarding `CO/C=C(/C(=O)O)c1ccccc1Oc1cc(Oc2ccccc2C#N)ncn1` [Azoxystrobin acid], the “reversed-phase LC retention time” value in data set [1] (setting [3]) worked out at 13 min; in data set [1] (setting [4]) it was 11.5 min. Moreover, the values for the collision cross section in data set [2] (setting [3]) and in data set [2] (setting [4]) were 190.75 Å² and 188.36 Å², respectively.
Take `COc1cc(C2c3cc4c(cc3C(OC3OC5COC(C)OC5C(O)C3O)C3COC(=O)C23)OCO4)cc(OC)c1O` (centres undefined) [Etoposide_2]: the “reversed-phase LC retention time” value in data set [1] (setting [4]) is 11.7 min. This compound returned a collision cross section in data set [2] (setting [4]) of 241.7 Å².
Consider `CCCCN(C=O)CCCC` [N,N-Di-n-butylformamide], for which, in data set [1] (setting [3]), the “reversed-phase LC retention time” value is 13.5 min. In data set [2] (setting [3]), this compound yielded a collision cross section of 141.17 Å².
`O=P(O)(Oc1ccccc1)Oc1ccccc1` [Diphenylphosphate]: the “reversed-phase LC retention time” value in data set [1] (setting [3]) stood at 17.6 min; in data set [1] (setting [4]) it was 10.8 min. Moreover, the collision cross section in data set [2] (setting [3]) came to 155.07 Å²; in data set [2] (setting [4]) it was 152.14 Å².
As to `COc1ccc2c(c1)[C@]13CCCC[C@@H]1[C@H](C2)N(C)CC3` [Dextromethorphan], the “reversed-phase LC retention time” value in data set [1] (setting [3]) was 11.4 min. The same compound had a collision cross section in data set [2] (setting [3]) of 166.66 Å².
In the case of `CC1(C)CC(O)CC(C)(C)N1CCO` [4-Hydroxy-1-(2-hydroxyethyl)-2,2,6,6-tetramethylpiperidine], in data set [1] (setting [3]), the “reversed-phase LC retention time” value amounted to 2.23 min. In data set [2] (setting [3]), this compound registered a collision cross section of 143.1 Å².
Taken in the same sequence, the figures for `O=P1(NCCCl)OCCCN1CCCl` (centres undefined) [Ifosfamide] were 10.2 min and 148.36 Å².
Taken in the same sequence, the figures for `CC[C@H]1OC(=O)[C@H](C)[C@@H](O[C@H]2C[C@@](C)(OC)[C@@H](O)[C@H](C)O2)[C@H](C)[C@@H](O[C@@H]2O[C@H](C)C[C@H](N(C)C)[C@H]2O)[C@](C)(O)C[C@@H](C)C(=NOCOCCOC)[C@H](C)[C@@H](O)[C@]1(C)O` [Roxithromycin] were 14.1 min and 277.32 Å².
For the compound `COC(=O)N(C(=O)N1CO[C@@]2(C(=O)OC)Cc3cc(Cl)ccc3C2=N1)c1ccc(OC(F)(F)F)cc1` [Indoxacarb], the “reversed-phase LC retention time” value in data set [1] (setting [3]) came out at 16.2 min. In data set [2] (setting [3]), this compound displayed a collision cross section of 206.73 Å².
Take `CCCCCCCCn1sccc1=O` [2-Octyl-4-isothiazolin-3-one]: the “reversed-phase LC retention time” value in data set [1] (setting [3]) is 14.9 min. The same compound registered a collision cross section in data set [2] (setting [3]) of 157.49 Å².
For `CCCCCCCCCCCCCCCC(=O)NCCO` [Palmitoylethanolamide] the same measures were 18.3 min and 193.35 Å².
